Test results as given in ChEMBL document CHEMBL1156092, “Anthranilic sulfonamide CCK1/CCK2 dual receptor antagonists II: tuning of receptor selectivity and in vivo efficacy” (Bioorg Med Chem Lett, 2009).

Tests used:
[1] = Plasma half life in rat at 2 umol/kg, iv; type: ADME, organism-based
[2] = Plasma clearance in rat at 2 umol/kg, iv; type: ADME, organism-based
Homo sapiens = organism: Homo sapiens; test: Ratio of pKi for human CCK-1R to pKi for human CCK-2R
[3] = Oral bioavailability in rat at 2 umol/kg; type: ADME, organism-based; details: in vivo
[4] = Volume of distribution at steady state in rat at 2 umol/kg, iv and 2 umol/kg, po; type: ADME, organism-based; details: in vivo, read-out: Vdss
Rattus norvegicus [5] = test: Inhibition of CCK8s-stimulated plasma amylase release in rat assessed as reduction in plasma amylase at 30 umol/kg, po dosed 60 mins before 10 nmol/kg, sc CCK8s challenge and measured after 6 hrs; type: functional
[6] = Apparent permeability from basolateral to apical side in human Caco-2 cells; type: ADME, cell-based
[7] = Apparent permeability from apical to basolateral side in human Caco-2 cells; type: ADME, cell-based
[8] = Metabolic stability in human liver microsomes assessed as compound remaining after 15 mins; type: ADME, Microsome; details: read-out: Stability
Rattus norvegicus [9] = test: Inhibition of iv dosed pentagastrin-stimulated gastric acid secretion in iv dosed anesthetized Ghosh and Schild rat model assessed as decrease in gastric lumen perfusate pH; type: functional, Stomach; details: for ED50: Rattus norvegicus, Stomach, iv
[10] = biological target: T1, Gastrin/cholecystokinin type B receptor (Homo sapiens, UniProt P32239); test: Displacement of [125I]-CCK-8S from human CCK-2R after 100 mins by liquid scintillation counting
T1 sequence (P32239 whole entry): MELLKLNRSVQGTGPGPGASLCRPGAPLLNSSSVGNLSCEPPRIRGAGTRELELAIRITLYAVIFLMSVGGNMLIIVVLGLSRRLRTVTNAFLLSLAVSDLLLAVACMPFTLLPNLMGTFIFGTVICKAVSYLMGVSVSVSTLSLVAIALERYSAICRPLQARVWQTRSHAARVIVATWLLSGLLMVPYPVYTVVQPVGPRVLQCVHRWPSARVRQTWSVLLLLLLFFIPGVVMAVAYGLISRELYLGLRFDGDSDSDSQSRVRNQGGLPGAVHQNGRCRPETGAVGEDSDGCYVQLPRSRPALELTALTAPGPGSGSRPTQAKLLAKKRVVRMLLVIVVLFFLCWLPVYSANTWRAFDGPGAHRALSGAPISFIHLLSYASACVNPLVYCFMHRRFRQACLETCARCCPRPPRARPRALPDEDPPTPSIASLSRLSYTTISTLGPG

| Structure (SMILES) | half-life [1] [h] | clearance [2] [mL/min/kg] | Ratio pKi (Homo sapiens) | bioavailability [3] [%] | Vd [4] [L/kg] | inhibition (INH) (Rattus norvegicus [5]) [%] | Papp B→A [6] [×10⁻⁶ cm/s] | Papp A→B [7] [×10⁻⁶ cm/s] | remaining at 0.25 h [8] [%] | pED50 (Rattus norvegicus [9]) | ED50 (Rattus norvegicus [9]) [µmol/kg] | Ki [10] [nM] |
| --- | --- | --- | --- | --- | --- | --- | --- | --- | --- | --- | --- | --- |
| O=C(N[C@@H](Cc1ccc(F)c(Br)c1)C(=O)O)c1ccc(I)cc1NS(=O)(=O)c1cccc2nsnc12 | 6.4 | 3.1 | 1.5 | 14 | 0.215 | – | – | – | – | – | – | – |
| O=C(N[C@@H](Cc1ccc(Cl)c(Br)c1)C(=O)O)c1ccc(Br)cc1NS(=O)(=O)c1cccc2nccnc12 | – | – | 1 | – | – | 65 | 1.97 | 0.1 | 69 | – | – | – |
| O=C(N[C@@H](Cc1ccc(F)c(Br)c1)C(=O)O)c1cc(Cl)c(Cl)cc1NS(=O)(=O)c1cccc2nsnc12 | 6.2 | 2.6 | – | 21 | 0.203 | 67 | 0.37 | 0.02 | 76 | 5.8 | 1.6 | – |
| O=C(N[C@@H](Cc1ccc(F)c(Br)c1)C(=O)O)c1ccc(Br)cc1NS(=O)(=O)c1cccc2nccnc12 | – | – | 1.8 | – | – | 67 | 4.36 | 0.03 | 54 | – | – | – |
| O=C(N[C@@H](Cc1ccc(F)c(Br)c1)C(=O)O)c1ccc(Cl)cc1NS(=O)(=O)c1cccc2nsnc12 | 1.3 | 3.1 | 1.4 | 11 | 0.105 | – | 1.25 | 0.04 | 65 | – | – | – |
| O=C(N[C@@H](Cc1ccc(F)c(Br)c1)C(=O)O)c1ccc(Br)cc1NS(=O)(=O)c1cccc2nsnc12 | – | – | 1.6 | – | – | – | 0.34 | 0.05 | 47 | – | – | – |
| O=C(N[C@@H](Cc1ccc(Cl)c(Cl)c1)C(=O)O)c1ccc(I)cc1NS(=O)(=O)c1cccc2nsnc12 | – | – | 0.9 | – | – | 45 | – | – | – | 5.1 | 7.9 | 25.1 |
| O=C(N[C@@H](Cc1ccc(Cl)c(Br)c1)C(=O)O)c1ccc(Br)cc1NS(=O)(=O)c1cccc2nsnc12 | – | – | 1 | – | – | – | 0.19 | 0.1 | 61 | – | – | – |
| O=C(N[C@@H](Cc1ccc(F)c(Br)c1)C(=O)O)c1ccc(Cl)cc1NS(=O)(=O)c1cccc2nccnc12 | 1.5 | 4.1 | 1.6 | 4 | 0.145 | – | 4.76 | 0.04 | 50 | – | – | – |
| O=C(N[C@@H](Cc1ccc(F)c(Br)c1)C(=O)O)c1cc(Cl)c(Cl)cc1NS(=O)(=O)c1cccc2nccnc12 | 7 | 2 | 1.4 | 9 | 0.129 | -5 | 1.05 | 0.1 | 65 | – | – | – |
